Source: patent US20110269219A1, “Method for increasing algae growth and the use thereof in production of algae-derived biofuels and other chemical” (GST Growth, LLC, priority 2010, published 2011)

System: Protococcus
Experiment: Growth of Protococcus liquid cultures monitored at Absorbance 550 nm
Format: cell-based
Details: Protococcus in water
Description: Liquid cultures were established in the laboratory from the algae specimens collected to include three experimental treatments, which were: A control of Protococcus in water; • 1). Protococcus in water supplemented with 0.5% methanol, which is known to stimulate growth of PPFM bacteria; and • 2) Protococcus in water supplemented with a Vitamin B12 overproducing PPFM. The growth of the cultures was monitored at Absorbance 550 nm with the results below in Table 2 being obtained: […]

Structure (SMILES): CO [Methanol, methanol]
- A550 nm (After One Week): 0.094
- A550 nm (After Two Weeks): 0.085
- A550 nm (Start): 0.069
